Assay results: US9334263B2, “Compositions useful for treating disorders related to kit” (BLUEPRINT MEDICINES CORPORATION, priority 2013, dated 2016)

Columns and labels:
[1] = target: T1, Kit D816V (HMC1.2 cells, Kit V560G and D816V) (Homo sapiens, UniProt P10721, D816V/V560G); experiment: HMC1.2 autophosphorylation assay (AlphaLISA, phospho-Y719 c-Kit); type: cell-based; conditions: Kit autophosphorylation at tyrosine 719, 90 minutes, read-out: Cellular Activity
T1 construct: endogenous in cells; host or cells: HMC1.2 cells
T1 sequence (P10721 26-976 V560G/D816V): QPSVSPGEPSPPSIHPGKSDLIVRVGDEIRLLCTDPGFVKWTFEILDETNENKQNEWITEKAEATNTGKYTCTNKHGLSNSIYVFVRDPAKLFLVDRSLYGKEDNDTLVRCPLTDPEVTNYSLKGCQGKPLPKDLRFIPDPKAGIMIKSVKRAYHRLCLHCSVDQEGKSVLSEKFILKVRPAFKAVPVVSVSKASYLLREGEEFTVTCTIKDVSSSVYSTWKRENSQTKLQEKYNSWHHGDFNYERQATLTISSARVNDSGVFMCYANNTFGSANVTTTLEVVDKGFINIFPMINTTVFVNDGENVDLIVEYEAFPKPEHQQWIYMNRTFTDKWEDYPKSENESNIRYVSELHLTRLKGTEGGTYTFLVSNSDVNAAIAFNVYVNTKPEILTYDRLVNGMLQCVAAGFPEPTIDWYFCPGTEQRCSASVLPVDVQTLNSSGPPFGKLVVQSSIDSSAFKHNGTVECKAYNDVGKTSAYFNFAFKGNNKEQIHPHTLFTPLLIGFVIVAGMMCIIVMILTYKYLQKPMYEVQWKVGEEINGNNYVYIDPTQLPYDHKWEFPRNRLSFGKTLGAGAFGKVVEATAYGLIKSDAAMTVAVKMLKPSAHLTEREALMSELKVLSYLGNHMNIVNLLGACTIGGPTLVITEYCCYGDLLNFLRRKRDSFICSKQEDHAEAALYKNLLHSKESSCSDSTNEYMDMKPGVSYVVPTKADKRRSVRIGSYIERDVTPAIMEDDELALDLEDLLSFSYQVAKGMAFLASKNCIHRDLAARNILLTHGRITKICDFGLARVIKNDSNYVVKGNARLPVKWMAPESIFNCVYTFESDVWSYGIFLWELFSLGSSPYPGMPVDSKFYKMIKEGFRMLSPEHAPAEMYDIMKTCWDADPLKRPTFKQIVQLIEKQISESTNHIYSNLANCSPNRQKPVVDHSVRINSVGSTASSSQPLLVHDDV
Outline: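 AlphaScreen signal comes from lysed HMC1.2 cells incubated with phospho-Y719 and total c-Kit antibodies (15 nM final), acceptor beads and then streptavidin donor beads, 2 h each at room temperature. Beforehand, cells deprived of serum overnight received compound for 90 min as a 10-point series, 25 uM–95.4 pM, 0.25% DMSO.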

[2] = target: T2, wild type Kit (Homo sapiens, UniProt P10721); experiment: Kit wild type assay at Km (Caliper electrophoretic mobility shift); type: biochemical; conditions: 400 uM ATP, 25 C, 90 minutes; read-out: WT KIT
T2 construct: purchased Carna Bioscience 08-156
T2 sequence (P10721 26-976): as the sequence (P10721 26-976 V560G/D816V) above, with G535V, V791D counted along it
Method: (§1) In order to assess the activity of chemical compounds against the relevant kinase of interest, the Caliper LifeSciences electrophoretic mobility shift technology platform is used. Fluorescently labeled substrate peptide is incubated in the presence of kinase and ATP so that a […] proportion of the peptide is phosphorylated. At the end of the reaction, the mix of phosphorylated (product) and non-phosphorylated (substrate) peptides are passed through the microfluidic system of the Caliper EZ Reader 2, under an applied potential difference. The presence of the phosphate group on the product peptide provides a difference in mass and charge between those of the substrate peptide, resulting in a separation of the substrate and product pools in the sample. As the pools pass a LEDS within the instrument, these pools are detected and resolved as separate peaks. The ratio between these peaks therefore reflects the activity of the chemical matter at that concentration in that well, under those conditions.
(§2) The reaction was stopped by the addition of 70 ul of Stop buffer (100 mM HEPES pH 7.5, 0.015% Brij 35, 35 mM EDTA and 0.2% of Coating Reagent 3 (Caliper Lifesciences)). The plate was then read on a Caliper EZReader 2 (protocol settings: −1.9 psi, upstream voltage −700, downstream voltage −3000, post sample sip 35 s).

[3] = target: T3, PDGFRA D842V (Homo sapiens, UniProt P16234, D842V); experiment: PDGFRA D842V assay at Km (Caliper electrophoretic mobility shift); type: biochemical; conditions: 15 uM ATP, 25 C, 90 minutes; read-out: PDFGRA D842V
T3 construct: purchased ProQinase 0761-0000-1
T3 sequence (P16234 24-1089 D842V): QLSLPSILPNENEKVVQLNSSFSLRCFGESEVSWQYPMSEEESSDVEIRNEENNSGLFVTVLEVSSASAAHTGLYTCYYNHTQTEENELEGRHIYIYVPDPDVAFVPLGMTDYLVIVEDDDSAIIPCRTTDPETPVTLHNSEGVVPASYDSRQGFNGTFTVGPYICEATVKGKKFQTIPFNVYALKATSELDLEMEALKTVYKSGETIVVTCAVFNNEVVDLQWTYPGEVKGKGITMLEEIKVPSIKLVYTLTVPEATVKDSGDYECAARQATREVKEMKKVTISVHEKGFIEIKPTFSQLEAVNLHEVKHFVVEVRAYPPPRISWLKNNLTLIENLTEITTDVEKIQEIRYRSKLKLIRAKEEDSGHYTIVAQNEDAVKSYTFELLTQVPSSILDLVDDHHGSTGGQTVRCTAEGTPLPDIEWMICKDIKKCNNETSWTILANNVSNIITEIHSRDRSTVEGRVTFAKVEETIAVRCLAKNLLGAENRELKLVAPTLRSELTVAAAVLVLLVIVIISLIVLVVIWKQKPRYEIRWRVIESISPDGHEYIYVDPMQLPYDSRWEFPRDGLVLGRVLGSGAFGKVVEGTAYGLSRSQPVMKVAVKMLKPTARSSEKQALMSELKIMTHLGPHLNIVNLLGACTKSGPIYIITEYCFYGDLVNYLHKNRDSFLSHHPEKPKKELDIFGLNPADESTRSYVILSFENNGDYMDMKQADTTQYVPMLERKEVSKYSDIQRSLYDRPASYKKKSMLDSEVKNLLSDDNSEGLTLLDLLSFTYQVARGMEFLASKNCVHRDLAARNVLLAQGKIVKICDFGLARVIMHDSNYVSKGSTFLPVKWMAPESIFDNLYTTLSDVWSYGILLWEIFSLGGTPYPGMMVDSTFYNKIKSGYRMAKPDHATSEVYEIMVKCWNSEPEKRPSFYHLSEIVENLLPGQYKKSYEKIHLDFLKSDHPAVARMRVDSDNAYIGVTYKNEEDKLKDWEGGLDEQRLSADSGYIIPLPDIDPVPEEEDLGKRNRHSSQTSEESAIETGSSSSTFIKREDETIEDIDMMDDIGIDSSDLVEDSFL
Method: as §1
as §2, with “voltage −500,” for “voltage −700,”, “sip 38” for “sip 35”

[4] = target: T4, D816V Kit (Homo sapiens, UniProt P10721, D816V); experiment: Kit D816V assay at Km (Caliper electrophoretic mobility shift); type: biochemical; conditions: 15 uM ATP, 25 C, 90 minutes
T4 construct: purchased Carna Bioscience 08-156
T4 sequence (P10721 26-976 D816V): as the sequence (P10721 26-976 V560G/D816V) above, with G535V counted along it
Outline: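 Read-out is the ratio of phosphorylated to unphosphorylated fluorescent peptide, resolved by mobility shift on a Caliper EZ Reader 2.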

Row | Structure (SMILES) | IC50 [1] [nM] | IC50 [2] [nM] | IC50 [3] [nM] | IC50 [4] [nM]
1 | c1ccc(Cc2cnc(N3CCN(c4ncnc(Nc5cnn(C[C@H]6CNCCO6)c5)n4)CC3)nc2)cc1 [Compound 123] | < 10 | < 10 | < 1 | < 1
2 | CN(C)C1CCN(Cc2cccc(Nc3ncnc(N4CCN(c5ncc(Cc6ccccc6)cn5)CC4)n3)c2)C1 (centres unmarked) [Compound 259] | 10 to 100 | < 10 | < 1 | < 1
3 | OCc1cccc(Nc2ncnc(N3CCN(c4ncc(Cc5ccccc5)cn4)CC3)n2)c1 [Compound 15] | 10 to 100 | 11 to 100 | < 1 | < 1
4 | c1ccc(Cc2cnc(N3CCN(c4ncnc(Nc5ccc6c(c5)CNCC6)n4)CC3)nc2)nc1 [Compound 44] | 10 to 100 | 11 to 100 | 1.01 to 10 | 1.01 to 10
5 | CN(C)CCCn1cc(Nc2ncnc(N3CCN(c4ncc(Cc5ccccc5)cn4)CC3)n2)cn1 [Compound 88] | 10 to 100 | 11 to 100 | < 1 | < 1
6 | c1ccc(Oc2cnc(N3CCN(c4ncnc(Nc5ccc6c(c5)CNCC6)n4)CC3)nc2)cc1 [Compound 46] | 10 to 100 | < 10 | 1.01 to 10 | < 1
7 | CN1CCC(Cn2cc(Nc3ncnc(N4CCN(c5ncc(Cc6ccccc6)cn5)CC4)n3)cn2)CC1 [Compound 174] | < 10 | < 10 | < 1 | < 1
8 | c1ccc(Cc2cnc(N3CCN(c4ncnc(Nc5ccc(N6CCNCC6)cc5)n4)CC3)nc2)cc1 [Compound 102] | 10 to 100 | < 10 | < 1 | < 1
9 | CNC(C)c1cccc(Nc2ncnc(N3CCN(c4ncc(Cc5ccccc5)cn4)CC3)n2)c1 (centres unmarked) [Compound 48] | 10 to 100 | < 10 | < 1 | < 1
10 | c1ccc(Cc2cnc(N3CCN(c4ncnc(Nc5cnn(CC6CCCNC6)c5)n4)CC3)nc2)cc1 (centres unmarked) [Compound 117] | 10 to 100 | < 10 | < 1 | < 1
11 | c1ccc(Cc2cnc(N3CCN(c4ncnc(Nc5cnn(CC6CCNC6)c5)n4)CC3)nc2)cc1 (centres unmarked) [Compound 83] | 10 to 100 | < 10 | < 1 | < 1
12 | O[C@H]1CCCN(c2ccc(Nc3ncnc(N4CCN(c5ncc(Cc6ccccc6)cn5)CC4)n3)cc2)C1 [Compound 166] | < 10 | 11 to 100 | 1.01 to 10 | < 1
13 | Oc1nc(N2CCN(c3ncnc(Nc4ccc5c(c4)CNCC5)n3)CC2)ncc1Cc1ccccc1 [Compound 75] | 10 to 100 | < 10 | < 1 | < 1
14 | CN(C)[C@@H]1CCN(Cc2cccc(Nc3ncnc(N4CCN(c5ncc(Cc6ccccc6)cn5)CC4)n3)c2)C1 [Compound 261] | 10 to 100 | < 10 | < 1 | < 1

Next, values leading:

Row | IC50 [1] [nM] | IC50 [2] [nM] | IC50 [3] [nM] | IC50 [4] [nM] | Structure (SMILES)
15 | 10 to 100 | 11 to 100 | < 1 | < 1 | CCNc1cccc(Nc2ncnc(N3CCN(c4ncc(Cc5ccccc5)cn4)CC3)n2)c1 [Compound 25]
16 | < 10 | < 10 | 1.01 to 10 | < 1 | c1ccc(Cc2cnc(N3CCN(c4ncnc(Nc5ccc(O[C@@H]6CCCNC6)cc5)n4)CC3)nc2)cc1 [Compound 161]
17 | 10 to 100 | < 10 | < 1 | < 1 | CC(C)N1CCc2ccc(Nc3ncnc(N4CCN(c5ncc(Cc6ccccc6)cn5)CC4)n3)cc2C1 [Compound 148]
18 | < 10 | < 10 | < 1 | < 1 | CN1CCc2ccc(Nc3ncnc(N4CCN(c5ncc(Cc6ccccc6)cn5)CC4)n3)cc2C1 [Compound 69]
19 | 100 to 1000 | < 10 | 1.01 to 10 | < 1 | CN1CCN(c2cccc(Nc3ncnc(N4CCN(c5ncc(Cc6ccccc6)cn5)CC4)n3)c2)CC1 [Compound 157]
20 | 10 to 100 | 11 to 100 | < 1 | < 1 | OC1CCC(NCc2cccc(Nc3ncnc(N4CCN(c5ncc(Cc6ccccc6)cn5)CC4)n3)c2)C1 (centres unmarked) [Compound 214]
21 | 10 to 100 | 11 to 100 | < 1 | < 1 | CNCCn1cc(Nc2ncnc(N3CCN(c4ncc(Cc5ccccc5)cn4)CC3)n2)cn1 [Compound 30]
22 | 100 to 1000 | 11 to 100 | 1.01 to 10 | < 1 | Cn1cc(Nc2ncnc(N3CCN(c4ncc(Cc5ccccc5)cn4)CC3)n2)cn1 [Compound 10]
23 | < 10 | < 10 | < 1 | < 1 | Nc1nc(N2CCN(c3ncnc(Nc4ccc5c(c4)CNCC5)n3)CC2)ncc1Cc1ccccc1 [Compound 73]
24 | 1000 to 10000 | < 10 | < 1 | < 1 | Oc1nc(N2CCN(c3ncnc(Nc4cnn(CC5CCNCC5)c4)n3)CC2)ncc1Cc1ccccc1 [Compound 179]
25 | 10 to 100 | 11 to 100 | < 1 | 1.01 to 10 | O=C1CCc2ccc(Nc3ncnc(N4CCN(c5ncc(Cc6ccccc6)cn5)CC4)n3)cc2N1 [Compound 68]
26 | 10 to 100 | < 10 | < 1 | < 1 | CNCCCn1cc(Nc2ncnc(N3CCN(c4ncc(Cc5ccccc5)cn4)CC3)n2)cn1 [Compound 61]
27 | 10 to 100 | < 10 | < 1 | < 1 | c1ccc(Cc2cnc(N3CCN(c4ncnc(Nc5cccc(C6CCCNC6)c5)n4)CC3)nc2)cc1 (centres unmarked) [Compound 98]
28 | 10 to 100 | 11 to 100 | 1.01 to 10 | < 1 | c1ccc(Cc2cnc(N3CCN(c4ncnc(Nc5cnc6c(c5)CNCC6)n4)CC3)nc2)cc1 [Compound 43]
29 | 10 to 100 | < 10 | < 1 | < 1 | c1ccc(Cc2cnc(N3CCN(c4ncnc(Nc5cn[nH]c5)n4)CC3)nc2)cc1 [Compound 4]
30 | 10 to 100 | 11 to 100 | < 1 | < 1 | CC(=O)Nc1cccc(Nc2ncnc(N3CCN(c4ncc(Cc5ccccc5)cn4)CC3)n2)c1 [Compound 47]
31 | 10 to 100 | < 10 | < 1 | < 1 | c1ccc(Cc2cnc(N3CCN(c4ncnc(Nc5cnn([C@@H]6CCNC6)c5)n4)CC3)nc2)cc1 (single isomer, unassigned) [Compound 53]
32 | < 10 | < 10 | < 1 | < 1 | Nc1cccc(Nc2ncnc(N3CCN(c4ncc(Cc5ccccc5)cn4)CC3)n2)c1 [Compound 12]
